Patent US11564911B2, “Small molecule dual-inhibitors of TRPV4 and TRPA1 for sanitizing and anesthetizing” (Duke University, priority 2016, dated 2023)

Legend:
[1] = molecular target: T1, human TRPV1 (Homo sapiens, UniProt Q8NER1); test: Ca2+ signal in N2a cells transfected with human TRPV1 (capsaicin); assay type: cell-based; conditions: 5 μM capsaicin stimulation
T1 construct: expressed in transfected cells; host or cells: N2a cells
Protocol: Compounds were tested for their effect on TRPV1, TRPV2, and TRPV3. Methods were similar to those described in Example 15. Briefly, N2a cells were transfected with human TRPV1, TRPV2, or TRPV3. eGFP-transfection was used as control. For specific stimulation of TRPV1, 5 μM capsaicin was used. For stimulation of TRPV2, hypotonicity (260 mosmol/L) was used, based on previous reports of TRPV2 being osmotically responsive. N2a cells were not responsive to hypotonicity, and neither were control-transfected cells. For TRPV3-expressing cells, camphor (20% of a commercially available stock solution) was used. […] Stimulation and control protocols were applied as for TRPA1-expressing N2a cells as detailed above in Example 15.

[2] = test system: Trpv4−/− mice, whisker-pad injection of formalin; test: Formalin-evoked trigeminal irritant pain, systemic (i.p.) compound, Trpv4−/− mice; assay type: in vivo, mouse; conditions: 10 mg/kg i.p.; for late-phase pain behavior: vs vehicle / vs A967079 25 mg/kg
Protocol: FIGS. 31A-31D: 16-8 and 16-19 effectively attenuate formalin-evoked trigeminal irritant pain. (FIG. 31A) Time-course of nocifensive behavior in WT mice following whisker-pad injection of 4% formalin. The mice were pre-injected (i.p., 10 mg/kg; 15 min before formalin) with GSK205, 16-8 or 16-19. Note effective reduction of nocifensive behavior in the late “neural” phase by compounds 16-8, 16-19, not by GSK205. (FIG. 31B) Cumulative response binned into 3 phases: acute phase (0-5 min), interphase (5-15 min), and late “neural” phase (15-45 min). […] (FIG. 31C) As in (FIG. 31A), but also including Trpv4^−/− mice. Compounds were applied i.p. 15 min before formalin challenge, at 10 mg/kg except established TRPA1 blocker, A967079 (25 mg/kg). Previously-established attenuated nocifensive behavior in early and late phase in Trpv4^−/− mice was recapped, which was reduced further by TRPA1 blocker, A967079. (FIG. 31D) As in (FIG. 31B), plus inclusion of Trpv4^−/− mice. Robust effects of TRPA1-blocker, A967079, were mimicked equi-potently by 16-8 and 16-19 for early phase, and by 16-8 for late phase, partially by 16-19 for late phase. (FIG. 31A, FIG. 31C) show averaged behavioral metrics per time-point, bars in (FIG. 31B, FIG. 31D) represent mean±SEM; for (D) *p<0.05; #P<0.005, one-way ANOVA; for all panels n=5-8 mice/group.
Compounds were tested for their effect in reducing pain using an in vivo pain model in mice. For mouse formalin-evoked irritant behavior measurements, mice were well-fed, well-rested, and tested at the same time of day, at the same time-point of their circadian rhythm. They were allowed to acclimate to a plexiglas chamber for at least 30 min before testing, and received 10 μL subcutaneous injection of 4% of formalin (diluted from an aqueous solution of commercial 37% formaldehyde with normal saline (NS)) through a 30-gauge needle into the right whiskerpad, as further detailed in Luccarini et al. (J. Pain, 2006, 7, 908-914). Normal saline was used as control injection. After injection, mice were immediately placed back into the chamber and the rubbing behavior was recorded by a private consumer-type video-camera for a 45 min observation period. The recording time was divided into 9 blocks of 5 min, and a nociceptive score was determined per block by measuring the time that the animals spent rubbing the injected area predominantly with the ipsilateral fore-paw and rarely with hind-paw. This rubbing behavior with fore-paw is evoked by pain, which is distinct from itch behavior. Behavioral analysis was conducted by observers blinded to treatment.
We observed significant residual irritant-pain behavior in all phases of the formalin model in Trpv4^−/− mice, consistent with our previous report^13 (FIG. 31C,D). […] A reference TRPA1-inhibitory compound, A967079, was used at 25 mg/kg body weight as a positive control to inhibit TRPA1, based on a previous report^38. Reduction of pain behavior in Trpv4^−/− mice was striking, more than 50% in the late neural phase. […] We conclude that compound 16-8 also functions as a potent TRPA1-inhibitor in an in-vivo irritant pain model specifically designed to assess the contribution of TRPA1 to trigeminal irritant pain, and at least as potent as an established reference TRPA1-antagonistic compound.

[3] = test system: N2a cells; test: Cell viability (resazurin) of N2a cells; assay type: cell-based; conditions: 48 h; for cellular toxicity vs inhibitory potency against TRPV4/TRPA1, factor: mouse
Protocol: FIGS. 30A-30B: Cellular toxicity studies of compounds 16-8 and 16-19. N2a cells were subjected to increasing concentrations of compounds 16-8 and 16-19, resulting cell viability was analyzed for the next 48 h. (FIG. 30A) Time course of cell viability in the presence of various concentrations of 16-8. […] Representative result of 2 independent experiments.
N2a cells were cultured in 96 well plates for 24-48 h. Cell viability studies relied on metabolic capability monitored with the indicator dye resazurin. Its reduction to resorufin (indicated by color change dark blue to pink) was monitored over time. Changes in absorbance at λ=570 nm were recorded using a microplate reader (Molecular Devices). […] Eight replicate cultures per experimental point were studied.

[4] = test system: WT mice, whisker-pad injection of 4% formalin; test: Formalin-evoked trigeminal irritant pain, systemic (i.p.) compound, WT mice; assay type: in vivo, mouse; conditions: 10 mg/kg i.p.
Protocol: FIGS. 31A-31D: 16-8 and 16-19 effectively attenuate formalin-evoked trigeminal irritant pain. (FIG. 31A) Time-course of nocifensive behavior in WT mice following whisker-pad injection of 4% formalin. The mice were pre-injected (i.p., 10 mg/kg; 15 min before formalin) with GSK205, 16-8 or 16-19. Note effective reduction of nocifensive behavior in the late “neural” phase by compounds 16-8, 16-19, not by GSK205. (FIG. 31B) Cumulative response binned into 3 phases: acute phase (0-5 min), interphase (5-15 min), and late “neural” phase (15-45 min). […] (FIG. 31C) As in (FIG. 31A), but also including Trpv4^−/− mice. Compounds were applied i.p. 15 min before formalin challenge, at 10 mg/kg except established TRPA1 blocker, A967079 (25 mg/kg). […]
Compounds were tested for their effect in reducing pain using an in vivo pain model in mice. […] After injection, mice were immediately placed back into the chamber and the rubbing behavior was recorded by a private consumer-type video-camera for a 45 min observation period. The recording time was divided into 9 blocks of 5 min, and a nociceptive score was determined per block by measuring the time that the animals spent rubbing the injected area predominantly with the ipsilateral fore-paw and rarely with hind-paw. […]

[5] = molecular target: T2, TRPV1 (Mus musculus, UniProt Q704Y3); test: Ca++ imaging in N2a cells over-expressing TRPV1; assay type: cell-based; conditions: 5 μM, mouse isoform in N2a cells
T2 construct: expressed in transfected cells; host or cells: N2a cells, eGFP co-transfected
Description: Mean±SEM is shown, ≥100 cells per condition. […] Plot generated from averaged peak ΔCa++ concentration of […] per data-point.

T2 sequence (Q704Y3 whole entry, canonical isoform): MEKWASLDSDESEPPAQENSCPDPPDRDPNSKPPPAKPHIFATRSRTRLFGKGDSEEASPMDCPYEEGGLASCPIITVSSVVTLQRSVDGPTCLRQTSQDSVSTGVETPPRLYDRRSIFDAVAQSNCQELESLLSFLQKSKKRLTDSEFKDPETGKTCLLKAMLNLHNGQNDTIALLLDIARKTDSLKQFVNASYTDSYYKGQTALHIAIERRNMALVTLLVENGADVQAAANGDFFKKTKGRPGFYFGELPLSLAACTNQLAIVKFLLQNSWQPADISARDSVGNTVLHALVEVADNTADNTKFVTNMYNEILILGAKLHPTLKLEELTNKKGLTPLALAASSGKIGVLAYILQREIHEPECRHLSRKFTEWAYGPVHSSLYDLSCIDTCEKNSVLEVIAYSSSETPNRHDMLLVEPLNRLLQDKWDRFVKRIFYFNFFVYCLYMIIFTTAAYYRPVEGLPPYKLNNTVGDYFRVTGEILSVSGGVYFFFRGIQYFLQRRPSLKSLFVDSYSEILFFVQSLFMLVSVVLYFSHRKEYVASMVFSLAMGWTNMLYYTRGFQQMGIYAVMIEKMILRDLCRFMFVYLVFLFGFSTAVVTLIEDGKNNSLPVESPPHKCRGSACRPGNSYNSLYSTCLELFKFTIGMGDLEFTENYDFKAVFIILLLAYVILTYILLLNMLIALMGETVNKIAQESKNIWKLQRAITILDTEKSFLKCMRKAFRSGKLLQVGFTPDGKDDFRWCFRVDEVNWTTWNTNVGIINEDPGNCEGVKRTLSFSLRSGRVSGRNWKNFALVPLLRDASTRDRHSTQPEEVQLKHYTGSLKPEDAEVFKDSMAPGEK
T1 sequence (Q8NER1 whole entry): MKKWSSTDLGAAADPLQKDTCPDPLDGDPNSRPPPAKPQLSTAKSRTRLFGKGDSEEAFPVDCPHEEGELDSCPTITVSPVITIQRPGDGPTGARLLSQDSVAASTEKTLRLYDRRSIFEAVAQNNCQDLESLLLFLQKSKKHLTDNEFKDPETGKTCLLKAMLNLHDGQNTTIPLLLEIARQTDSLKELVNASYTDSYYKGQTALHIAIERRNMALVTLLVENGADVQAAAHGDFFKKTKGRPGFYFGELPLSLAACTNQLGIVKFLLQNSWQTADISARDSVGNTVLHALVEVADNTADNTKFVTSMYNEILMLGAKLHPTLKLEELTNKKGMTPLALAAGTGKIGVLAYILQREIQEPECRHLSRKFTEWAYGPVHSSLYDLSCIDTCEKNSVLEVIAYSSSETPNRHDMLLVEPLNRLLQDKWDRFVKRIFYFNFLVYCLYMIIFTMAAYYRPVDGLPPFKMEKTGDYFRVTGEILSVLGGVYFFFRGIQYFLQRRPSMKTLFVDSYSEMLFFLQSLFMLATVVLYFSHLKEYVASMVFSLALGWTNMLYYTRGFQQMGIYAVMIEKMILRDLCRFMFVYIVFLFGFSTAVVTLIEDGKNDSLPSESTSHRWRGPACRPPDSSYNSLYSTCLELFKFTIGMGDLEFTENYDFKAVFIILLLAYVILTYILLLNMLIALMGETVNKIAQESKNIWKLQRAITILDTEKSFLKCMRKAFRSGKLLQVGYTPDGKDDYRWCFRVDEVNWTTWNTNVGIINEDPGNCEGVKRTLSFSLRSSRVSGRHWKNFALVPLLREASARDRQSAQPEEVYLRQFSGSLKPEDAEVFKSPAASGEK

Row | Structure (SMILES) | effect on Ca2+ transience, TRPV1 [1] | immediate-phase pain behavior [2] | late-phase pain behavior [2] | cell viability time course at increasing concentrations [3] | cellular toxicity vs inhibitory potency against TRPV4/TRPA1, factor [3] | formalin-evoked pain behavior in the delayed (late, neural) phase [4] | inhibition of TRPV1 [5]
1 | CN(CCc1ccc(Nc2nc(-c3ccccc3)cs2)cc1)Cc1ccccc1 [Compound 16-8] | not affected | virtually eliminated | strikingly reduced | clear reduction at 40 and 80 μM | 50-100 | significant attenuation | did not inhibit
2 | CCN(CCc1ccc(Nc2nc(-c3ccccc3)cs2)cc1)Cc1ccccc1 [Compound 16-19] | not affected | virtually eliminated | significantly reduced | – | 50-100 | robust effect | did not inhibit
